Experimental data taken from patent US10577363B2, “Substituted piperidine compounds” (EPIZYME, INC., priority 2014, dated 2020).

Experiments:
SMYD3 [1] = target: T1, SMYD3 (Homo sapiens (Human), UniProt Q9H7B4); assay: SMYD3 cell assay (Trimethyl-MEKK2 In-Cell Western in 293T/17 cells); type: cell-based; details: read-out: SMYD3 Cell IC50
How it was run: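 In-Cell Western ratio of trimethyl-Lys260 MEKK2 to anti-flag signal; percent inhibition from DMSO and maximum-inhibition controls, IC50 by non-linear regression, triplicates.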

SMYD3 [2] = target: T1, SMYD3; assay: SMYD3 biochemical assay (SPA, 3H-SAM methylation of MEKK2 protein substrate); details: read-out: SMYD3 Biochem IC50
How it was run: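 Tritium incorporation into GST-MEKK2 is counted by scintillation proximity after citric acid bead capture. Native human SMYD3 is preincubated with test compound for 30 min at room temperature at pH 8.0 (Tris-Cl, TCEP, BSG, Tween 20) before 3H-SAM and substrate are added; cold SAM at 100 uM final stops turnover.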

T1 sequence (Q9H7B4 whole entry): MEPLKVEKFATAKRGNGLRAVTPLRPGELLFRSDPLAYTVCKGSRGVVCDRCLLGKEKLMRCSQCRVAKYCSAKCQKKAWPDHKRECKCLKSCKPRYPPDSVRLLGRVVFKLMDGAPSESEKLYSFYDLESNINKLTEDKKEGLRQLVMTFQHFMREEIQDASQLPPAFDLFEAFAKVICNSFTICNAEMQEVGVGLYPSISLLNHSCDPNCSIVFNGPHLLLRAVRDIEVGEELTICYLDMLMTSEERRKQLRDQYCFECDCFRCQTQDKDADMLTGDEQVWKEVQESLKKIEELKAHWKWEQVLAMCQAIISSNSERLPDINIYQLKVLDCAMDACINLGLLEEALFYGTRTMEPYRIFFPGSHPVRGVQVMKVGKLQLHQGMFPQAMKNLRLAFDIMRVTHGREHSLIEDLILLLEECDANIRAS

| SMILES | IC50 (SMYD3 [1]; Table 2A) [µM] | IC50 (SMYD3 [2]; Table 2A) [µM] | IC50 (SMYD3 [1]; average of n = 1 to n = 50) [µM] | IC50 (SMYD3 [2]; average of n = 1 to n = 50) [µM] |
| --- | --- | --- | --- | --- |
| C[C@H]1CNCCN1S(=O)(=O)N1CC[C@H](NC(=O)c2cc(C3CC3)on2)C[C@@H]1C [compound 624, 5-cyclopropyl-N-((2S,4S)-2-methyl-1-(((S)-2-methylpiperazin-1-yl)sulfonyl)piperidin-4-yl)isoxazole-3-carboxamide] | 0.284 | 0.0246 |  |  |
| C[C@H]1C[C@@H](NC(=O)c2cc(C3CC3)on2)CCN1S(=O)(=O)CCCNCC1CC1 [compound 630, 5-cyclopropyl-N-((2S,4S)-1-((3-((cyclopropylmethyl)amino)propyl)sulfonyl)-2-methylpiperidin-4-yl)isoxazole-3-carboxamide] |  |  | 0.396 | 0.0294 |
| CC(C)NCCCS(=O)(=O)N1CC[C@H](NC(=O)c2cc(C3CC3)on2)C[C@@H]1C [compound 633, 5-cyclopropyl-N-((2S,4S)-1-((3-(isopropylamino)propyl)sulfonyl)-2-methylpiperidin-4-yl)isoxazole-3-carboxamide] |  |  | 0.291 | 0.0304 |
| CCC1CN(S(=O)(=O)N2[C@@H]3CC[C@H]2C[C@@H](NC(=O)c2cc(C4CC4)on2)C3)CCN1 (stereo partly drawn) [compound 636, 5-cyclopropyl-N-((1R,3r,5S)-8-((3-ethylpiperazin-1-yl)sulfonyl)-8-azabicyclo[3.2.1]octan-3-yl)isoxazole-3-carboxamide] |  |  | 0.365 | 0.0332 |
| C[C@H]1C[C@@H](NC(=O)c2cc(C3CC3)on2)CCN1S(=O)(=O)N1CCCN(C)CC1 [compound 639, 5-cyclopropyl-N-((2S,4S)-2-methyl-1-((4-methyl-1,4-diazepan-1-yl)sulfonyl)piperidin-4-yl)isoxazole-3-carboxamide] |  |  | 0.258 | 0.0348 |
| CC(C)CNCCCS(=O)(=O)N1CC[C@H](NC(=O)c2cc(C3CC3)on2)C[C@@H]1C [compound 640, 5-cyclopropyl-N-((2S,4S)-1-((3-(isobutylamino)propyl)sulfonyl)-2-methylpiperidin-4-yl)isoxazole-3-carboxamide] |  |  | 0.48 | 0.0357 |
| CN1CCN(S(=O)(=O)N2[C@@H]3CC[C@H]2C[C@@H](NC(=O)c2cc(C4CC4)on2)C3)CC1 [compound 641, 5-cyclopropyl-N-((1R,3r,5S)-8-((4-methylpiperazin-1-yl)sulfonyl)-8-azabicyclo[3.2.1]octan-3-yl)isoxazole-3-carboxamide] |  |  | 0.188 | 0.0363 |
| O=C(N[C@H]1C[C@H]2CC[C@@H](C1)N2S(=O)(=O)N1CCNC(CO)C1)c1cc(C2CC2)on1 (stereo partly drawn) [compound 643, 5-cyclopropyl-N-((1R,3r,5S)-8-((3-(hydroxymethyl)piperazin-1-yl)sulfonyl)-8-azabicyclo[3.2.1]octan-3-yl)isoxazole-3-carboxamide] |  |  | 0.211 | 0.0378 |
| C[C@H]1C[C@@H](NC(=O)c2cc(C3CC3)on2)CCN1S(=O)(=O)CCCNC(c1ccccc1)c1ccccc1 [compound 645, N-((2S,4S)-1-((3-(benzhydrylamino)propyl)sulfonyl)-2-methylpiperidin-4-yl)-5-cyclopropylisoxazole-3-carboxamide] |  |  | 0.575 | 0.0444 |
| O=C(N[C@H]1CCN(S(=O)(=O)CC2CCNCC2)[C@@H](Cc2ccccc2)C1)c1cc(C2CC2)on1 [compound 647, N-((2S,4S)-2-benzyl-1-((piperidin-4-ylmethyl)sulfonyl)piperidin-4-yl)-5-cyclopropylisoxazole-3-carboxamide] |  |  | 0.809 | 0.0455 |
| CNCCS(=O)(=O)N1[C@@H]2CC[C@H]1C[C@@H](NC(=O)c1cc(C3CC3)on1)C2 [compound 649, 5-cyclopropyl-N-((1R,3r,5S)-8-((2-(methylamino)ethyl)sulfonyl)-8-azabicyclo[3.2.1]octan-3-yl)isoxazole-3-carboxamide] |  |  | 0.261 | 0.0472 |
| CN(C)C1CCN(CCS(=O)(=O)N2[C@@H]3CC[C@H]2C[C@@H](NC(=O)c2cc(C4CC4)on2)C3)C1 (stereo partly drawn) [compound 651, 5-cyclopropyl-N-((1R,3r,5S)-8-((2-(3-(dimethylamino)pyrrolidin-1-yl)ethyl)sulfonyl)-8-azabicyclo[3.2.1]octan-3-yl)isoxazole-3-carboxamide] |  |  | 0.532 | 0.0506 |

Now from value to compound:

| IC50 (SMYD3 [1]; Table 2A) [µM] | IC50 (SMYD3 [2]; Table 2A) [µM] | IC50 (SMYD3 [1]; average of n = 1 to n = 50) [µM] | IC50 (SMYD3 [2]; average of n = 1 to n = 50) [µM] | SMILES |
| --- | --- | --- | --- | --- |
| 0.224 | 0.0253 |  |  | C[C@H]1CN(S(=O)(=O)CC2CCN(C)CC2)CC[C@H]1NC(=O)c1cc(C2CC2)on1 [compound 625, 5-cyclopropyl-N-((3S,4R)-3-methyl-1-(((1-methylpiperidin-4-yl)methyl)sulfonyl)piperidin-4-yl)isoxazole-3-carboxamide] |
| 0.157 | 0.0253 |  |  | C[C@H]1C[C@@H](NC(=O)c2cc(C3CC3)on2)CCN1S(=O)(=O)N1C[C@H]2C[C@@H]1CN2C [compound 626, 5-cyclopropyl-N-((2S,4S)-2-methyl-1-(((1R,4R)-5-methyl-2,5-diazabicyclo[2.2.1]heptan-2-yl)sulfonyl)piperidin-4-yl)isoxazole-3-carboxamide] |
|  |  | 0.243 | 0.0265 | C[C@H]1CN(S(=O)(=O)c2ccc(C(C)(C)N)cc2)CC[C@H]1NC(=O)c1cc(C2CC2)on1 [compound 627, N-((3S,4R)-1-((4-(2-aminopropan-2-yl)phenyl)sulfonyl)-3-methylpiperidin-4-yl)-5-cyclopropylisoxazole-3-carboxamide] |
|  |  | 0.577 | 0.0273 | C[C@H]1CN(S(=O)(=O)CCCNCc2ccccc2)[C@@H](C)C[C@H]1NC(=O)c1cc(C2CC2)on1 [compound 628, N-((2S,4R,5S)-1-((3-(benzylamino)propyl)sulfonyl)-2,5-dimethylpiperidin-4-yl)-5-cyclopropylisoxazole-3-carboxamide] |
|  |  | 0.407 | 0.0282 | C[C@@H]1CN(S(=O)(=O)CC2CCNCC2)[C@H](C)C[C@@H]1NC(=O)c1cc(C2CC2)on1 [compound 629, 5-cyclopropyl-N-((2R,4S,5R)-2,5-dimethyl-1-((piperidin-4-ylmethyl)sulfonyl)piperidin-4-yl)isoxazole-3-carboxamide] |
|  |  | 0.298 | 0.0298 | C[C@H]1C[C@@H](NC(=O)c2cc(C3CC3)on2)CCN1S(=O)(=O)N1CC2CCC1CN2C (stereo partly drawn) [compound 631, 5-cyclopropyl-N-((2S,4S)-2-methyl-1-((5-methyl-2,5-diazabicyclo[2.2.2]octan-2-yl)sulfonyl)piperidin-4-yl)isoxazole-3-carboxamide] |
|  |  | 0.229 | 0.0304 | C[C@H]1CN(S(=O)(=O)CC2CCNCC2)[C@@H](C)C[C@H]1NC(=O)c1cc(C2CC2)on1 [compound 632, 5-cyclopropyl-N-((2S,4R,5S)-2,5-dimethyl-1-((piperidin-4-ylmethyl)sulfonyl)piperidin-4-yl)isoxazole-3-carboxamide] |
|  |  | 0.176 | 0.0318 | C[C@@H]1CN(S(=O)(=O)N2CC[C@H](NC(=O)c3cc(C4CC4)on3)C[C@@H]2C)CCN1 [compound 634, 5-cyclopropyl-N-((2S,4S)-2-methyl-1-(((R)-3-methylpiperazin-1-yl)sulfonyl)piperidin-4-yl)isoxazole-3-carboxamide] |
|  |  | 0.318 | 0.0325 | C[C@H]1C[C@@H](NC(=O)c2cc(C3CC3)on2)CCN1S(=O)(=O)CCCNCC(C)(C)C [compound 635, 5-cyclopropyl-N-((2S,4S)-2-methyl-1-((3-(neopentylamino)propyl)sulfonyl)piperidin-4-yl)isoxazole-3-carboxamide] |
|  |  | 0.203 | 0.0334 | C[C@H]1CN(S(=O)(=O)N2CCNCC2)[C@@H](C)C[C@H]1NC(=O)c1cc(C2CC2)on1 [compound 637, 5-cyclopropyl-N-((2S,4R,5S)-2,5-dimethyl-1-(piperazin-1-ylsulfonyl)piperidin-4-yl)isoxazole-3-carboxamide] |
|  |  | 0.254 | 0.0337 | C[C@H]1C[C@@H](NC(=O)c2cc(C3CC3)on2)CCN1S(=O)(=O)N1CCNC(C)(C)C1 [compound 638, 5-cyclopropyl-N-((2S,4S)-1-((3,3-dimethylpiperazin-1-yl)sulfonyl)-2-methylpiperidin-4-yl)isoxazole-3-carboxamide] |
|  |  | 0.571 | 0.0376 | C[C@@H]1CN(S(=O)(=O)CCCN)[C@H](C)C[C@@H]1NC(=O)c1cc(C2CC2)on1 [compound 642, N-((2R,4S,5R)-1-((3-aminopropyl)sulfonyl)-2,5-dimethylpiperidin-4-yl)-5-cyclopropylisoxazole-3-carboxamide] |
|  |  | 0.303 | 0.0413 | C[C@@H]1C[C@H](NC(=O)c2cc(C3CC3)on2)CCN1C(=O)c1ccc(C2CCNCC2)cc1 [compound 644, 5-cyclopropyl-N-((2R,4R)-2-methyl-1-(4-(piperidin-4-yl)benzoyl)piperidin-4-yl)isoxazole-3-carboxamide] |
|  |  | 0.755 | 0.0452 | C[C@H]1CN(S(=O)(=O)NC2CCNCC2)CC[C@H]1NC(=O)c1cc(C2CC2)on1 [compound 646, 5-cyclopropyl-N-((3S,4R)-3-methyl-1-(N-(piperidin-4-yl)sulfamoyl)piperidin-4-yl)isoxazole-3-carboxamide] |
|  |  | 0.331 | 0.0468 | COCCCN1CCC(CS(=O)(=O)N2CC[C@@H](NC(=O)c3cc(C4CC4)on3)[C@@H](C)C2)CC1 [compound 648, 5-cyclopropyl-N-((3S,4R)-1-(((1-(3-methoxypropyl)piperidin-4-yl)methyl)sulfonyl)-3-methylpiperidin-4-yl)isoxazole-3-carboxamide] |
|  |  | 4.63 | 0.0491 | C[C@H]1C[C@@H](NC(=O)c2cc(C3CC3)on2)CCN1S(=O)(=O)NCCN [compound 650, N-((2S,4S)-1-(N-(2-aminoethyl)sulfamoyl)-2-methylpiperidin-4-yl)-5-cyclopropylisoxazole-3-carboxamide] |
